{"source": "patent US5260426A", "about": "“Process for the preparation of pseudo primycin” (Chinoin Gyogyszer Es Vegyeszeti Termekek Gyara R.T., priority 1988, dated 1993)", "key": {"in vivo": {"test": "in vivo", "conditions": "mouse"}, "Solubility": {"test": "Solubility", "assay_type": "physicochemical"}}, "note": "Like-named read-outs stand apart in the source and are kept apart here.", "data": [{"smiles": "CCCCC1C(=O)OC(CCCNC(=N)N)C(C)C(O)C(C)C=C(C)CCCCC(O)CC(O)CC(O)CC(O)CC(O)C(OC2OC(CO)C(O)C2O)C=C(C)C(O)CCCC(O)CCCC(O)CCC(C)C1O", "note": "(stereo not shown) [Pseudo-primycin-A1-acetate]", "values": [{"measurement": "LD50", "setting": "in vivo; iv, female mice, read-out: LD50 values i.v. female", "result": 18.8, "unit": "mg/kg"}, {"measurement": "LD50", "setting": "in vivo; iv, male mice, read-out: LD50 values i.v. male", "result": 17.7, "unit": "mg/kg"}, {"measurement": "LD50", "setting": "in vivo; po, female mice, read-out: LD50 values p.o. female", "result": 1580, "unit": "mg/kg"}, {"measurement": "LD50", "setting": "in vivo; po, male mice, read-out: LD50 values p.o. male", "result": 1720, "unit": "mg/kg"}, {"measurement": "solubility in ethanol", "setting": "Solubility; ethanol", "result": 5, "unit": "g/10 ml"}, {"measurement": "solubility in methanol", "setting": "Solubility; methanol", "result": 10, "unit": "g/10 ml"}, {"measurement": "solubility in water", "setting": "Solubility; water", "result": 5, "unit": "g/10 ml"}]}]}
